Measured values from patent publication US9579314B2 (priority 2015, dated 2017).
Several values for one entry are separate records, joined by “and”; a condition that tells them apart may be missing. Equal entries are not always repeated.

How the values were obtained:
[1] = biological target: Human M3 receptor (Homo sapiens, UniProt P20309); conditions: read-out: M3 binding affinity
[2] = biological target: Human β2 adrenoceptor (Homo sapiens, UniProt P07550); conditions: read-out: B2 binding affinity
Human β2 adrenoceptor, sequence (P07550 whole entry): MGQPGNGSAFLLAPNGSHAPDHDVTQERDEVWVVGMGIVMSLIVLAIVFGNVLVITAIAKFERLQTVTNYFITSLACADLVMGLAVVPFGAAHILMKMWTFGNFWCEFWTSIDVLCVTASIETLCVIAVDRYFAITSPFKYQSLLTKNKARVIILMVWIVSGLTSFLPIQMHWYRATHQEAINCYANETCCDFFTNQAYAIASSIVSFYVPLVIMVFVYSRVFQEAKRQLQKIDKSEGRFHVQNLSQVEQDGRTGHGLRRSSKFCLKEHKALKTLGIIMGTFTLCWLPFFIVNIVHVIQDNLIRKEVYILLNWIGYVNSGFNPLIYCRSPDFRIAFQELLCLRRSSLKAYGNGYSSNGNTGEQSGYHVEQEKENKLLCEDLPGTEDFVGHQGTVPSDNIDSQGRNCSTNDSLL

Human M3 receptor, sequence (P20309 whole entry): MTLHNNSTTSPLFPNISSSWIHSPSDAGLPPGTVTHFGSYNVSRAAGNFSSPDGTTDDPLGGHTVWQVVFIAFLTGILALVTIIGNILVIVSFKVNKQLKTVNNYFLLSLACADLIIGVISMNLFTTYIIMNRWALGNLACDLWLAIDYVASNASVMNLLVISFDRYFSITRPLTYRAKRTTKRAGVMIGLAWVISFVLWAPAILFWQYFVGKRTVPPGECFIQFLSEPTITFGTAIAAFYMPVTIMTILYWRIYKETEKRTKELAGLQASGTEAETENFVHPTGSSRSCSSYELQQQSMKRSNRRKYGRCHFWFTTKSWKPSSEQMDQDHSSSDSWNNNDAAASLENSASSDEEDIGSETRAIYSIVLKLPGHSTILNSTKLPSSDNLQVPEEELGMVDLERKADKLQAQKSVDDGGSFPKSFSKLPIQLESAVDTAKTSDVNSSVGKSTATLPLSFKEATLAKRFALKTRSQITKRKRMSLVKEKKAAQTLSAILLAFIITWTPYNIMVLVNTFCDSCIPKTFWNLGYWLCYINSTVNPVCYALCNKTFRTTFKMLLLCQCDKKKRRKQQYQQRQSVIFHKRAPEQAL

Structure (SMILES) | IC50 [1] | IC50 [2] [nM]
O=C(COc1cccc([C@](O)(C(=O)OCC2CCN(Cc3ccccc3)CC2)c2ccccc2)c1)N1CCC(CCNC[C@H](O)c2ccc(O)c3[nH]c(=O)ccc23)CC1 [Compound 36A, (1-benzylpiperidin-4-yl)methyl (S)-2-hydroxy-2-(3-(2-(4-(2-(((R)-2-hydroxy-2-(8-hydroxy-2-oxo-1,2-dihydroquinolin-5-yl)ethyl)amino)ethyl)piperidin-1-yl)-2-oxoethoxy)phenyl)-2-phenylacetate] | 0.3 to 3 nM | 0.3 to 3
O=C(NCCCOc1cccc([C@](O)(C(=O)OCC2CCN(Cc3ccccc3)CC2)c2ccccc2)c1)c1ccc(CCNC[C@H](O)c2ccc(O)c3[nH]c(=O)ccc23)cc1 [Compound 37, (S)-(1-benzylpiperidin-4-yl)methyl 2-hydroxy-2-(3-(3-(4-(2-(((R)-2-hydroxy-2-(8-hydroxy-2-oxo-1,2-dihydroquinolin-5-yl)ethyl)amino)ethyl)benzamido)propoxy)phenyl)-2-phenylacetate] | < 0.3 nM | < 0.3
O=C(NCCOc1cccc([C@](O)(C(=O)OCC2CCN(Cc3ccccc3)CC2)c2ccccc2)c1)c1ccc(CCNC[C@H](O)c2ccc(O)c3[nH]c(=O)ccc23)cc1 [Compound 38, (S)-(1-benzylpiperidin-4-yl)methyl 2-hydroxy-2-(3-(2-(4-(2-(((R)-2-hydroxy-2-(8-hydroxy-2-oxo-1,2-dihydroquinolin-5-yl)ethyl)amino)ethyl)benzamido)ethoxy)phenyl)-2-phenylacetate] | < 0.3 nM | < 0.3
O=C(NCCc1cccc(C(O)(C(=O)OCC2CCN(Cc3ccccc3)CC2)c2ccccc2)c1)c1ccc(CCNC[C@H](O)c2ccc(O)c3[nH]c(=O)ccc23)cc1 (stereo partly drawn) [Compound 40, (1-benzylpiperidin-4-yl)methyl 2-hydroxy-2-(3-(2-(4-(2-(((R)-2-hydroxy-2-(8-hydroxy-2-oxo-1,2-dihydroquinolin-5-yl)ethyl)amino)ethyl)benzamido)ethyl)phenyl)-2-phenylacetate] | 0.3 to 3 nM | 0.3 to 3
O=C(c1ccc(CNC[C@H](O)c2ccc(O)c3[nH]c(=O)ccc23)cc1)N1CC(COc2cccc([C@](O)(C(=O)OCC3CCN(Cc4ccccc4)CC3)c3ccccc3)c2)C1 [Compound 41, (S)-(1-benzylpiperidin-4-yl)methyl 2-hydroxy-2-(3-((1-(4-((((R)-2-hydroxy-2-(8-hydroxy-2-oxo-1,2-dihydroquinolin-5-yl)ethyl)amino)methyl)-benzoyl)azetidin-3-yl)methoxy)phenyl)-2-phenylacetate] | 0.3 to 3 nM | 0.3 to 3
O=C(c1ccc(CCNC[C@H](O)c2ccc(O)c3[nH]c(=O)ccc23)cc1)N1CC(COc2cccc([C@](O)(C(=O)OCC3CCN(Cc4ccccc4)CC3)c3ccccc3)c2)C1 [Compound 42, (S)-(1-benzylpiperidin-4-yl)methyl 2-hydroxy-2-(3-((1-(4-(2-(((R)-2-hydroxy-2-(8-hydroxy-2-oxo-1,2-dihydroquinolin-5-yl)ethyl)amino)ethyl)benzoyl)azetidin-3-yl)methoxy)phenyl)-2-phenylacetate] | < 0.3 nM | < 0.3
COc1cc(NC(=O)COc2cccc([C@](O)(C(=O)OCC3CCN(Cc4ccccc4)CC3)c3ccccc3)c2)ccc1CNC[C@H](O)c1ccc(O)c2[nH]c(=O)ccc12 [Compound 42A, (S)-(1-benzylpiperidin-4-yl)methyl 2-hydroxy-2-(3-(2-((4-((((R)-2-hydroxy-2-(8-hydroxy-2-oxo-1,2-dihydroquinolin-5-yl)ethyl)amino)methyl)-3-methoxyphenyl)amino)-2-oxoethoxy)phenyl)-2-phenylacetate] | < 0.3 nM | 0.3 to 3
COc1cc(NC(=O)COc2cccc([C@](O)(C(=O)OCC3CCN(Cc4ccccc4)CC3)c3ccccc3)c2)c(F)cc1CNC[C@H](O)c1ccc(O)c2[nH]c(=O)ccc12 [Compound 42B, (1-benzylpiperidin-4-yl)methyl (S)-2-(3-(2-((2-fluoro-4-((((R)-2-hydroxy-2-(8-hydroxy-2-oxo-1,2-dihydroquinolin-5-yl)ethyl)amino)methyl)-5-methoxyphenyl)amino)-2-oxoethoxy)phenyl)-2-hydroxy-2-phenylacetate] | < 0.3 nM and 0.3 to 3 nM | < 0.3
O=C(NCc1ccc(COc2cccc([C@](O)(C(=O)OCC3CCN(Cc4ccccc4)CC3)c3ccccc3)c2)cc1)c1ccc(CCNC[C@H](O)c2ccc(O)c3[nH]c(=O)ccc23)cc1 [Compound 42C, (1-benzylpiperidin-4-yl)methyl (S)-2-hydroxy-2-(3-((4-((4-(2-(((R)-2-hydroxy-2-(8-hydroxy-2-oxo-1,2-dihydroquinolin-5-yl)ethyl)amino)ethyl)benzamido)methyl)benzyl)oxy)phenyl)-2-phenylacetate] | 0.3 to 3 nM | < 0.3
O=C(NCc1ccc(COc2cccc([C@](O)(C(=O)OCC3CCN(Cc4ccccc4)CC3)c3ccccc3)c2)cc1)c1ccc(CNC[C@H](O)c2ccc(O)c3[nH]c(=O)ccc23)cc1 [Compound 42D, (1-benzylpiperidin-4-yl)methyl (S)-2-hydroxy-2-(3-((4-((4-((((R)-2-hydroxy-2-(8-hydroxy-2-oxo-1,2-dihydroquinolin-5-yl)ethyl)amino)methyl)benzamido)methyl)benzyl)oxy)phenyl)-2-phenylacetate] | 0.3 to 3 nM | < 0.3
COc1cc(CNC[C@H](O)c2ccc(O)c3[nH]c(=O)ccc23)ccc1C(=O)NCc1ccc(COc2cccc([C@](O)(C(=O)OCC3CCN(Cc4ccccc4)CC3)c3ccccc3)c2)cc1 [Compound 42E, (1-benzylpiperidin-4-yl)methyl (S)-2-hydroxy-2-(3-((4-((4-((((R)-2-hydroxy-2-(8-hydroxy-2-oxo-1,2-dihydroquinolin-5-yl)ethyl)amino)methyl)-2-methoxybenzamido)methyl)benzyl)oxy)phenyl)-2-phenylacetate] | 0.3 to 3 nM | < 0.3
COc1cc(C(=O)NCc2ccc(COc3cccc([C@](O)(C(=O)OCC4CCN(Cc5ccccc5)CC4)c4ccccc4)c3)cc2)ccc1CNC[C@H](O)c1ccc(O)c2[nH]c(=O)ccc12 [Compound 42F, (1-benzylpiperidin-4-yl)methyl (S)-2-hydroxy-2-(3-((4-((4-((((R)-2-hydroxy-2-(8-hydroxy-2-oxo-1,2-dihydroquinolin-5-yl)ethyl)amino)methyl)-3-methoxybenzamido)methyl)benzyl)oxy)phenyl)-2-phenylacetate] | 0.3 to 3 nM | < 0.3
O=C(NCCCNC[C@H](O)c1ccc(O)c2[nH]c(=O)ccc12)c1ccc(COc2cccc([C@](O)(C(=O)OCC3CCN(Cc4ccccc4)CC3)c3ccccc3)c2)cc1 [Compound 43, (S)-(1-Benzylpiperidin-4-yl)methyl 2-hydroxy-2-(3-((4-((3-(((R)-2-hydroxy-2-(8-hydroxy-2-oxo-1,2-dihydroquinolin-5-yl)ethyl)amino)propyl)carbamoyl)benzyl)oxy)phenyl)-2-phenylacetate] | < 0.3 nM | < 0.3
O=C(NCCCNC[C@H](O)c1ccc(O)c2[nH]c(=O)ccc12)c1ccc(COc2cccc([C@@](O)(C(=O)OCC3CCN(Cc4ccccc4)CC3)c3ccccc3)c2)cc1 [Compound 44, (R)-(1-Benzylpiperidin-4-yl)methyl 2-hydroxy-2-(3-((4-((3-(((R)-2-hydroxy-2-(8-hydroxy-2-oxo-1,2-dihydroquinolin-5-yl)ethyl)amino)propyl)carbamoyl)benzyl)oxy)phenyl)-2-phenylacetate] | 0.3 to 3 nM | < 0.3
O=C(c1cccc(COc2cccc([C@](O)(C(=O)OCC3CCN(Cc4ccccc4)CC3)c3ccccc3)c2)c1)N(CCCNC[C@H](O)c1ccc(O)c2[nH]c(=O)ccc12)Cc1ccccc1 [Compound 45, (S)-(1-Benzylpiperidin-4-yl)methyl 2-(3-((3-(benzyl(3-(((R)-2-hydroxy-2-(8-hydroxy-2-oxo-1,2-dihydroquinolin-5-yl)ethyl)amino)propyl)carbamoyl)benzyl)oxy)phenyl)-2-hydroxy-2-phenylacetate] | 0.3 to 3 nM | 0.3 to 3
O=C(NCCCCNC[C@H](O)c1ccc(O)c2[nH]c(=O)ccc12)c1cccc(C(O)(C(=O)OCC2CCN(Cc3ccccc3)CC2)c2ccccc2)c1 (stereo partly drawn) [Compound 47, (1-benzylpiperidin-4-yl)methyl 2-hydroxy-2-(3-((4-(((R)-2-hydroxy-2-(8-hydroxy-2-oxo-1,2-dihydroquinolin-5-yl)ethyl)amino)butyl)carbamoyl)phenyl)-2-phenylacetate diformate] | 0.3 to 3 nM | < 0.3
O=C(NCCCNC(=O)c1cccc(C(O)(C(=O)OCC2CCN(Cc3ccccc3)CC2)c2ccccc2)c1)c1ccc(CNC[C@H](O)c2ccc(O)c3[nH]c(=O)ccc23)cc1 (stereo partly drawn) [Compound 50, (1-benzylpiperidin-4-yl)methyl 2-hydroxy-2-(3-((3-(4-((((R)-2-hydroxy-2-(8-hydroxy-2-oxo-1,2-dihydroquinolin-5-yl)ethyl)amino)methyl)benzamido)propyl)-carbamoyl)phenyl)-2-phenylacetate diformate] | 0.3 to 3 nM | > 3
O=C(OCC1CCN(Cc2ccccc2)CC1)C(O)(c1ccccc1)c1ccc(OCCCCCNC[C@H](O)c2ccc(O)c3[nH]c(=O)ccc23)cc1 (stereo partly drawn) [Compound 51, (1-benzylpiperidin-4-yl)methyl 2-hydroxy-2-(4-((5-(((R)-2-hydroxy-2-(8-hydroxy-2-oxo-1,2-dihydroquinolin-5-yl)ethyl)amino)pentyl)oxy)phenyl)-2-phenylacetate diformate] | 0.3 to 3 nM | < 0.3
O=C(NCc1ccc(COc2ccc(C(O)(C(=O)OCC3CCN(Cc4ccccc4)CC3)c3ccccc3)cc2)cc1)c1ccc(CNC[C@H](O)c2ccc(O)c3[nH]c(=O)ccc23)cc1 (stereo partly drawn) [Compound 53, (1-benzylpiperidin-4-yl)methyl 2-hydroxy-2-(4-((4-((4-((((R)-2-hydroxy-2-(8-hydroxy-2-oxo-1,2-dihydroquinolin-5-yl)ethyl)amino)methyl)benzamido)methyl)-benzyl)oxy)phenyl)-2-phenylacetate diformate] | > 3 nM | > 3
